Test results published in patent US20150216182A1, “COMPOSITIONS AND METHODS OF THE ATTRACTION AND REPULSION OF INSECTS” (Olfactor Laboratories, Inc., priority 2012, published 2015).
Structures can show the parent of a compound that is named as a salt. Where two headings read alike, the source gives them in different places.

How the values were obtained:
female mosquitoes [1] = assay: whole plant or invertebrate; details: 2 h; for mortality at 200 µg/mL: read-out: % mortality with 0.2 mg/ml; for mortality at 2000 µg/mL: read-out: % mortality with 2 mg/ml
bed bugs = assay: bed bug luring assay; format: in vivo; details: cottonball with 100 microliters solution, total 100 mg compound(s), 10 bed bugs, overnight
Protocol: Assays were conducted to measure the ability of compounds and compound combinations to attract bed bugs. A testing arena habitat comprising a small plastic container was placed inside of a larger, secondary container. The top half inch was removed from two bathroom sized solo cups and each cup was placed on opposite sides of the testing arena habitat, one inch away from the wall. Each outer part of the cup was textured using sandpaper, as bed bugs cannot climb smooth surfaces. A paper towel was used to line the floor of the testing arena habitat. The top, removed portion of one of the solo cups was placed mouth side down in the center of the arena. In one of the cups, a cottonball was placed and treated with 100 microliters of compound or compound combination solution [comprising a total of 100 mg of compound(s).] 10 bed bugs were placed within the center cut off cup top and the testing arena habitat was covered and placed within a dark, climate controlled room overnight. The next day, the number of bed bugs that crawled into the baited cup were recorded and the % attractancy was calculated as the percentage of bugs that crawled into the baited cup as compared to the total number of bed bugs. In the Table, “Att” refers to attractancy and “Cmpd” refers to compound.

[2] = system: bed bugs (Cimex lectularius); assay: bed bug repellency assay; format: in vivo; details: compound or combination on filter paper harborage, ten bed bugs
Outline: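 Ten Cimex lectularius per talc-lined petri dish chose between folded filter-paper harborages treated with isopropyl alcohol alone or compound in isopropyl alcohol […], dried before use. Bugs moved freely 5 min; occupancy beneath each tent recorded, with a solvent-only pairing as control.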

larvae = assay: larvicidal activity assay; format: in vivo; details: for pest or weed control at 0.25 %: read-out: % Lethality with 0.25% compound conc.; for pest or weed control at 100 ppm: read-out: % Lethality at 100 ppm
Protocol: A 6-well plate (Corning Life Sciences, Tewksbury, Mass.) is used to test a compound's larvicidal activity. […] After a 24 hour exposure, the number of dead larvae are counted and recorded.
The results are presented in Table 17 as % lethality (the number of dead larvae divided by the total number of larvae).

cpA neurons [3] = assay: extracellular single-sensillum electrophysiology: activation of cpA neuronal activity; details: for Class: Table 6, single compounds, increase over baseline cpA neuronal activity; for Comp B Class / Comp A Class: Table 9; for Comp B Class: component B tested individually; for Class B (activator class of the individual component): Table 15, single component alone, Mod Actv; for Comp A Class: component A tested individually
female mosquitoes [4] = details: single compound, female mosquitoes, two hours; for % mortality with 0.2 mg/ml: 0.2 mg/ml on filter paper; for % mortality with 2 mg/ml: 2 mg/ml on filter paper
cpA neurons [5] = assay: extracellular single-sensillum electrophysiology: inhibition of CO2-responsive (cpA) neuronal activity; details: for Class: Table 10, single compounds, percent reduction in cpA activity compared to baseline; for Class (inhibitor class of the individual component): Inh = inhibitor
cpB and cpC neurons = assay: extracellular single-sensillum electrophysiology: beta activators; format: in vivo, Aedes aegypti; details: for Class (beta activator, individual component) / Class A (beta activator, individual component): Beta Actv; for beta activator (stimulates cpB and cpC neuronal activity): single compound; for Class A (beta activator, individual component): Table 15, single component alone
From the text: Three types of CO2-responsive neurons reside in the maxillary palp of mosquitoes. These include cpA, cpB and cpC neurons. […] These neurons produce spikes with much lower amplitude than those produced by cpA neurons. Although the activity from cpB and cpC neurons cannot easily be distinguished from one another, their collective activity can be distinguished from cpA neurons due to their characteristic spikes. This is useful in the identification of compounds and compositions that only activate or inhibit cpB and cpC neurons or compounds and compositions that activate or inhibit both.
Carbon dioxide receptor neurons are housed within the basiconic sensilla of the mosquito maxillary palp. While activity from cpA neurons produces the largest amplitude spike, cpB and cpC neurons present in this region are also responsive to skin odors. Activity from these neurons can also be detected through the electrophysiological methods described in Example 1.
Although the activity from cpB and cpC neurons cannot easily be distinguished from one another, their collective activity can be distinguished from cpA neurons due to their production of spikes with much lower amplitude than those produced by cpA neurons.

[6] = 0.25% compound, 24 hour exposure, dead larvae / total larvae
[7] = 100 ppm compound, 24 hour exposure, dead larvae / total larvae
[8] = Table 13, single component alone
[9] = Table 16, single component alone

Molecule	mortality at 200 µg/mL (female mosquitoes [1])	mortality at 2000 µg/mL (female mosquitoes [1])	% Rep (bed bug repellency) [2]	pest or weed control at 0.25 % (larvae; [6])	pest or weed control at 100 ppm (larvae; [7])	Class (cpA neurons [3])	% Lethality with 0.25% compound conc. (larvae; [6])	% Lethality at 100 ppm (larvae; [7])	% mortality with 0.2 mg/ml (female mosquitoes [4])	% mortality with 2 mg/ml (female mosquitoes [4])	Class (cpA neurons [5])	beta activator (stimulates cpB and cpC neuronal activity) (cpB and cpC neurons)	also measured
COc1cnccn1 [OLI0003, 2-methoxypyrazine]	0%	0%	22%	100%	0%	Strong Activator (strong activators yield an increase in activity that is >60 spk/sec over baseline neuronal activity)							% Att (bed bug attractancy) (bed bugs): 30%
N#C/C=C/c1ccccc1 [OLI0020, cinnamyl nitrile]			56%			Moderate Activator (Moderate activators yield an increase in neuronal activity that is between 40 and 60 spk/sec over baseline neuronal activity)	100% lethal	100% lethal	0%	100%			Comp B Class (cpA neurons [3]): Mod; Class B (activator class of the individual component) (cpA neurons [3]): Mod
CCCC1CCC(=O)O1 (stereo not drawn) [OLI0024, gamma-heptalactone]			71%			Moderate Activator (Moderate activators yield an increase in neuronal activity that is between 40 and 60 spk/sec over baseline neuronal activity)	100% lethal	0% lethal	0%	0%			Comp A Class (cpA neurons [3]): Mod; Comp B Class (cpA neurons [3]): Mod; Class B (activator class of the individual component) (cpA neurons [3]): Mod
O=CCCc1ccccc1 [OLI0029, phenylpropylaldehyde]			100%			Moderate Activator (Moderate activators yield an increase in neuronal activity that is between 40 and 60 spk/sec over baseline neuronal activity)	100% lethal	0% lethal	0%	15%			Comp A Class (cpA neurons [3]): Mod; Comp B Class (cpA neurons [3]): Mod; Class B (activator class of the individual component) (cpA neurons [3]): Mod
CC(=O)/C=C/C=C(C)C [OLI0059]			87%			Mild Activator (mild activators yield an increase in neuronal activity that is between 20 and 40 spk/sec over baseline neuronal activity)	100% lethal	58% lethal	0%	0%			
CCCOC=O [OLI0063, propyl formate]	0%	0%				Mild Activator (mild activators yield an increase in neuronal activity that is between 20 and 40 spk/sec over baseline neuronal activity)							% Att (bed bug attractancy) (bed bugs): 30%; pest or weed control at 100 ppm (larvae; 24 h): 0%; pest or weed control at 0.25 % (larvae; 24 h): 0%; Comp B Class (cpA neurons [3]): Mild
COc1nccnc1C [OLI0070, 2-methoxy-3-methylpyrazine]	0%	0%		100%	0%						Strong Inhibitor (strong inhibitors (reducing activity >60%))		% Att (bed bug attractancy) (bed bugs): 10%
CCCCC(=O)OCc1ccco1 [OLI0074, furfurylpentanoate]	0%	0%	100%	100%	0%						Moderate Inhibitor (moderate inhibitors (reducing activity by 40-60%))	beta activator	Class (inhibitor class of the individual component) (cpA neurons [5]; [8]): Mod; Class (inhibitor class of the individual component) (cpA neurons [5]; [9]): Mod; Class (beta activator, individual component) (cpB and cpC neurons; [9]): Beta
CCCCCC(=O)CC [OLI0075, octanone-3]							100% lethal	50% lethal	0%	0%	Moderate Inhibitor (moderate inhibitors (reducing activity by 40-60%))		Class (inhibitor class of the individual component) (cpA neurons [5]; [8]): Mod
C/C=C(\C)C(=O)OC(CC)CCCCC (stereo not drawn) [OLI0079, 1-ethylhexyl tiglate]	0%	15%	49%	100%	0%						Mild Inhibitor (mild inhibitors (reducing activity by 20-40%))	beta activators	inhibitor class of single compound (cpA neurons [5]; single compound): mild cpA inhibitors
CC/C=C\CCCCO [OLI0084, cis-5-octen-1-ol]	0%	95%	82%	100%	0%						Mild Inhibitor (mild inhibitors (reducing activity by 20-40%))	beta activator	Class (inhibitor class of the individual component) (cpA neurons [5]; [8]): Mild; Class (inhibitor class of the individual component) (cpA neurons [5]; [9]): Mild; Class (beta activator, individual component) (cpB and cpC neurons; [9]): Beta
CC/C=C\CCOC=O [OLI0096, cis-3-hexenyl formate]	0%	0%	6%	30%	0%							beta activators	Class A (beta activator, individual component) (cpB and cpC neurons): Beta
CC(C)CCOC=O [OLI0098, isoamyl formate]												beta activators	Class A (beta activator, individual component) (cpB and cpC neurons): Beta
CC/C=C/CC(=O)OC [OLI0100, methyl (E)-hex-3-enoate]	0%	0%	17%	100%	0%							beta activators	Comp B Class (cpA neurons [3]): Beta; Class (beta activator, individual component) (cpB and cpC neurons; [8]): Beta; Class A (beta activator, individual component) (cpB and cpC neurons): Beta; Class (beta activator, individual component) (cpB and cpC neurons; [9]): Beta
COC(/C=C/c1ccccc1)OC [OLI0106, cinnamic aldehyde dimethyl acetal]			90%				100% lethal	10% lethal	0%	100%			
CC1=C2CCC(C)CC2OC1=O (stereo not drawn) [OLI0111, Menthalactone]			13%				100% lethal	33% lethal	0%	100%			
furfurylpentenoate [OLI0088]											Mild Inhibitor (mild inhibitors (reducing activity by 20-40%))		Class (inhibitor class of the individual component) (cpA neurons [5]; [9]): Mod; Class (beta activator, individual component) (cpB and cpC neurons; [9]): Beta
methoxy cinnamic aldehyde [OLI0112]			23%				100% lethal	0% lethal	0%	100%			
